In test [1] the target is T1, MOR (Homo sapiens, UniProt P35372).
T1 construct: expressed in transfected cells; host or cells: CHO-K1/OP3 (name from the earlier reading)
The experiment in a line: Agonist test on MOR, cAMP level (CHO-K1/OP3 cells, cAMP assay kit). The note with it: for EC50: forskolin-stimulated cAMP, read-out: EC50 agonizing MOR receptor to affect cAMP level; for Emax: maximal effect of DAMGO is 100%, read-out: Emax agonizing MOR receptor to affect cAMP level. It is filed as cell-based. How it is done:
5×stimulation buffer was diluted to 1× with ddH2O, an appropriate amount of 500 mM IBMX (generally, the IBMX stock solution was prepared to be 500 mM, namely 1000×) was added to enable the final concentration of the IBMX to be 0.5 mM, and the mixture was mixed well for later use (after the IBMX was added, that precipitation occurred was normal, and the precipitate was dissolved by well mixing). It must be prepared right before use.
1.3.1.2 IBMX was dissolved with DMSO to prepare a 500 mM stock solution, which was aliquoted into 20 μL/tube and cryopreserved at −80° C. to avoid repetition of freezing and thawing.
1.3.1.3 Forskolin was dissolved with DMSO to prepare a 10 mM stock solution, which was aliquoted into 20 μL/tube and cryopreserved at −20° C. for later use.
The CAMP standard substance in the kit returned to room temperature, and an equivalent amount of the experimental buffer was added according to the volume marked on the bottle label. The mixture was vortexed for mixing, aliquoted according to 50 μL/tube, and cryopreserved at −20° C. for later use.
5 mL ddH2O was added to a bottle of cAMP-d2 and a bottle of anti-cAMP-cryptate lyophilized powder, respectively, and the mixture was mixed well by gently turning the mixture upside down, aliquoted according to 125, 62.5, and 30 μL, and the like, and cryopreserved in the dark at −80° C.
1.3.2.1 Positive compound DAMGO and the test compound were serially diluted 4-fold to obtain 10 concentrations with Bravo using experimental buffer in a compound plate (Greiner-781280) at a starting concentration of 2 μM (from DMSO stock solution diluted with experimental buffer) and 20 μM (from DMSO stock solution diluted with experimental buffer), respectively.
1.3.2.2 Cells cryopreserved were thawed in a water bath at 37° C., the cell suspension was added to a centrifuge tube containing 10 mL of HBSS buffer, and the mixture was centrifuged at 750 rpm for 5 min. The supernatant was discarded, the pellet was resuspended in an appropriate amount of experimental buffer, and 20 μL of the pellet was counted using a cell counter. An appropriate amount of the cell suspension was diluted to 0.4×10^6 cells/mL, and 5 μL of the cell suspension was added to each well of a cell plate (the cell density was 2000 cells/well) and centrifuged at 1000 rpm for 1 min. 5 μL of the diluted compound was transferred to a cell plate (PerkinElmer-6008280) with Bravo, 5 μL of 2 μM DAMGO (the final concentration was 1 μM) was transferred to positive control wells, and an equal volume of experimental buffer was transferred to negative control wells, and the cell plate was centrifuged at 1000 rpm for 1 min. The cell plate was sealed and incubated at room temperature for 15 min. Forskolin was diluted to 0.2 mM with DMSO, 25.1 nL of which was transferred to a cell plate with Tecan-D300e, and the plate was centrifuged at 1000 rpm for 1 min, sealed, and incubated at room temperature for 45 min.
The final concentration of the initial point was 712 nM.
1.3.2.4 Preparation of detection reagent: an appropriate amount of a cAMP-d2 stock solution and an anti-cAMP-cryptate stock solution was diluted with a lysis buffer according to the ratio of 1:20, the two solutions were then mixed well by turning the solutions upside down according to the ratio of 1:1, and vortexing was prohibited. 10 μL of the prepared detection reagent was added to a cell plate and centrifuged at 1000 rpm for 1 min. The cell plate was incubated at room temperature for 1 h in the dark. After the cell plate was centrifuged at 1000 rpm for 1 min, the plate was read using Envision. Excitation light at 340 nm, emission light at 620 nm and 665 nm.
The formula for calculating the compound activation rate in the agonist test: […]

The target in test [2] is T2, MOR beta-arrestin (Homo sapiens, UniProt P35372).
T2 construct: expressed in transfected cells; host or cells: MOR beta-arrestin cell strain (U2OS/OPRM1 PathHunter per the earlier reading), kept under Hygromycin B and G418 selection
The experiment in a line: MOR beta-arrestin agonist test (PathHunter, U2OS/OPRM1 cell line). The note with it: Human Mu opioid β-arrestin U2OS/OPRM1 cell line; for Emax: maximal effect of DAMGO is 100%, read-out: Emax for activating beta-arrestin signaling pathway; for EC50: read-out: EC50 for activating beta-arrestin signaling pathway. In kind it is cell-based. How it is done: • Cell complete medium: MEM+10% FBS+1% PS+250 μg/mL Hygromycin B+500 μg/mL G418 +1×GlutaMAX • Cell inoculation medium: MEM+10% FBS+1% PS • Experimental buffer: 1×DPBS+0.1% BSA • Detection reagent: Galacton Star:Emerald II:PathHunter cell assay buffer=1:5:19
• i) Compound samples were dissolved in DMSO to a stock concentration of 10 mM; • ii) A sample dilution sequence on a 384-well LDV plate was prepared, wherein the first concentration point of the sample was 10 mM (FAC=30 μM), and the sample was serially diluted 3.162-fold to obtain a total of 11 concentration points; • iii) The sample dilution sequence and HPE and ZPE were transferred to a compound plate (PE #6008590) using an Echo machine, with each well 90 nL transferred.
• i) The MOR beta-arrestin cell strain was cultured in a cell complete medium at 37° C. with 5% CO2 to a confluence of 70-90%; • ii) the cells were digested and resuspended in the cell inoculation medium, and 20 μL of the MOR beta-arrestin cell suspension was added to each well of an assay plate (Corning #3570) at 7500 cells/well and incubated in an incubator at 37° C. with 5% CO2 for 24 h; • iii) 30 μL of an experimental buffer was added to a compound plate (PE #6008590), and the plate was centrifuged at 1000 rpm for 5 min; • iv) after 24 h, the assay plate was taken out, the medium was removed from the plate, and then 20 μL of the compound was transferred from each corresponding well of the compound plate to the assay plate with Bravo; • v) the assay plate was centrifuged at 500 rpm for 30 s and then placed into an incubator for incubation at 37° C. with 5% CO2 for 90 min; • vi) 10 μL of the beta-arrestin detection reagent was added to each well of the assay plate; • vii) after 1 h of incubation at room temperature in the dark, the plate was read on Envision.
The experimental data of the percent activation rate and concentrations of 11 points were fitted using XLFit to a parameter nonlinear logic
Use formula to calculate the EC50 value of the compound, and the results are shown in Table 7 (maximal effect of DAMGO is 100%).

The test system of test [3] is pain threshold of a mouse. Briefly: Mouse thermal radiation tail-flick method. In kind it is in vivo, ICR mice. The following applies: for Maximum analgesic percentage (% MPE): ICR mice, intragastric 10 mg/kg, Mean ± SEM, n = 9-10. How it is done: • Intragastric administration at a dose of 10 mg/kg;
ICR mice (normal grade, weighed 25-35 g, purchased from Shanghai Slac Laboratory Animal Co., Ltd.) were first mounted in a special plastic cylinder, their tails were exposed and allowed to droop naturally, and the measurements were made after the animals were calm. The radiation heat source could be an 8.75 mm projection lamp (32 W, adjustable). A light beam with the diameter of about 4 mm was emitted after being focused by a lens, which irradiated the skin at the junction of the middle third and the lower third of the tail (the light source and the skin at the tail must be closely attached); an electronic timer connected with the light source in parallel was used to synchronously record the irradiation duration, that is, when the irradiation started, a stopwatch was automatically started at the same time. When the tail of the animal obviously evaded, the timing was automatically stopped. The measured time interval was the tail flick latency. Mice with tail flick latency of 2-6 seconds were screened to participate in a grouping administration experiment. […] After a dose of a drug was administered to the mice, the pain threshold of the mice was measured at different times.
After a dose of a drug was administered to the mice, the pain threshold of the mice was measured at 0.5 h, 1 h, 2 h, and 3 h (effect view of the analgesic effect is shown in FIG. 1). The formula for calculating the maximum analgesic percentage (% MPE) after administration was as follows: % MPE=(post-administration pain threshold−pre-administration pain threshold)/(15−pre-administration pain threshold)×100%.
For orientation: Hot-plate and tail-flick tests time the reaction to a heat stimulus.

Some results are limits rather than exact numbers.

The results in this text go back to patent publication US20240398772A1, “OXASPIRO DERIVATIVE, AND PREPARATION METHOD THEREFOR AND USE THEREOF” (SHUJING BIOPHARMA CO., LTD, priority 2021, published 2024).

What is called EC50 is the concentration needed to bring the measured effect to its halfway point. In general, Emax refers to the greatest response seen or fitted, relative to the assay's reference.

T1 sequence (P35372 whole entry): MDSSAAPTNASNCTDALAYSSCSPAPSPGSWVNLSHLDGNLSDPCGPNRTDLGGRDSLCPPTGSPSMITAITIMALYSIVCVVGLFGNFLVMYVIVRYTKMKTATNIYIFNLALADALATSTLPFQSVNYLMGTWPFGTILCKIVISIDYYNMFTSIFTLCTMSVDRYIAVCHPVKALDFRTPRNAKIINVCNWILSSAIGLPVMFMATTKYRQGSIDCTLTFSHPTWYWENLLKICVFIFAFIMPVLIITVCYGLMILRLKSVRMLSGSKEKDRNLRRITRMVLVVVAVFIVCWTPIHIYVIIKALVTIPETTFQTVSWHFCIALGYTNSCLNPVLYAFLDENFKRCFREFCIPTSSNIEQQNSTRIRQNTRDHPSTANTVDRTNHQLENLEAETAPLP
T2 sequence (P35372 whole entry): as above

For `Fc1ccc(C2(CCNC3Cc4cccc(Br)c4C3)CCOC3(CCOCC3)C2)nc1` (stereo not drawn) [Compound 10, 4-bromo-N-(2-(4-(5-fluoropyridin-2-yl)-1,9-dioxaspiro[5.5]undecan-4-yl)ethyl)-2,3-dihydro-1H-inden-2-amine], in test [1], the EC50 came to 2.79 nM and the Emax is 80.9%. Also, in test [2], the Emax amounted to 4.5% and the EC50 is 4800 nM.
With `Fc1ccc(C2(CCNC3Cc4ccccc4C3)CCOC3(CCOCC3)C2)nc1` (stereo not drawn) [Compound 8, N-(2-(4-(5-fluoropyridin-2-yl)-1,9-dioxaspiro[5.5]undecan-4-yl)ethyl)-2,3-dihydro-1H-inden-2-amine], the EC50 was determined as 8.62 nM in test [1] and 364 nM in test [2]. For the same molecule, the Emax in test [1] is 72%; in test [2], 2.1%.
Taken in the same sequence, the figures for `c1ccc(C2(CCNC3CCc4ccccc43)CCOC3(CCOCC3)C2)nc1` (stereo not drawn) [Compound 15, N-(2-(4-(pyridin-2-yl)-1,9-dioxaspiro[5.5]undecan-4-yl)ethyl)-2,3-dihydro-1H-inden-1-amine] were 30.7 nM, 1780 nM, 96.9% and 7.2%.
Taken in the same sequence, the figures for `Fc1ccc([C@]2(CCNCc3cccc(Cl)c3Cl)CCOC3(CCOCC3)C2)nc1` [Compound 13-1, (R)—N-(2,3-dichlorobenzyl)-2-(4-(5-fluoropyridin-2-yl)-1,9-dioxaspiro[5.5]undecan-4-yl)ethan-1-amine] were 18.7 nM, more than 30000 nM, 78.6% and 4.2%.
Take `Cc1c(Cl)cccc1CNCCC1(c2ccc(F)cn2)CCOC2(CCOCC2)C1` (stereo not drawn) [Compound 12, N-(3-chloro-2-methylbenzyl)-2-(4-(5-fluoropyridin-2-yl)-1,9-dioxaspiro[5.5]undecan-4-yl)ethan-1-amine]: the EC50 in test [1] is 7.63 nM; in test [2], more than 30000 nM. Further, the Emax in test [1] is 89.8%; in test [2], 6.3%.
As for `Fc1ccc([C@]2(CCNC3Cc4ccccc4C3)CCOC3(CCOCC3)C2)nc1` [Compound 8-1, (R)—N-(2-(4-(5-fluoropyridin-2-yl)-1,9-dioxaspiro[5.5]undecan-4-yl)ethyl)-2,3-dihydro-1H-inden-2-amine], the figures for the EC50 in test [1] and in test [2] were 4.1 nM and more than 30000 nM, respectively. The Emax in test [1] is 92.8%; in test [2], 3%. Moreover, the “Maximum analgesic percentage (% MPE)” value worked out at 80.64 ± 9.27 % in test [3] (0.5 h after administration), 85.69 ± 5.95 % in test [3] (1 h after administration), 69.94 ± 10.43 % in test [3] (2 h after administration) and 87.16 ± 6.80 % in test [3] (3 h after administration). Further, the “Maintenance of the analgesic effect compared with oxycodone” value in test [3] (mouse tail flick, 0.5-3 h after administration) was “maintained for a longer period of time”. For the same molecule, the “Drug effect compared with oxycodone” value in test [3] (mouse tail flick, same dose (10 mg/kg intragastric)) is on record as “better drug effect than oxycodone”.
